Assay results published in patent publication US6686393B1, “Pharmaceutical compositions having antiviral activity against human cytomegalovirus” (Murdock International Corporation, priority 1990, dated 2004).
Where two headings read alike, the source gives them in different places.

Experiments:
[1] = system: human cytomegalovirus (HCMV), strain AD-169; assay: Antiviral test (plaque reduction) versus HCMV, strain AD-169, in MRC-5 cells; format: cell-based; conditions: for Number of Plaques: average of two wells; for inhibition at 0.1 µg/mL: Human betaherpesvirus 5, AD169, MRC5, 0.1 μg/ml; for inhibition at 0.32 µg/mL: Human betaherpesvirus 5, AD169, MRC5, 0.32 μg/ml; for inhibition at 1 µg/mL: Human betaherpesvirus 5, AD169, MRC5, 1.0 μg/ml
[2] = system: HCMV, strain C8805-37 (DHPG-resistant); assay: microbe, parasite or virus in culture; format: cell-based, human cytomegalovirus
[3] = system: murine cytomegalovirus, strain Smith MSGV; assay: Antiviral test (plaque reduction) versus murine cytomegalovirus, strain Smith MSGV, in 3T3 cells; format: cell-based; conditions: Example 8
3T3 cells = conditions: mouse
[4] = Example 1, DMSO stock, read-out: % Inhibition
[5] = Example 2, read-out: Percent Inhibition of Plaque Numbers (Compared to Virus Controls)
[6] = Human betaherpesvirus 5, MRC5, read-out: Percent Inhibition Compared to Controls
[7] = 0.32 μg/ml (second line so printed, r16, below 0.1)

`Cc1cc(O)c2c(=O)c3c(O)cc(O)c4c5c(O)cc(O)c6c(=O)c7c(O)cc(C)c8c1c2c(c34)c(c78)c65` [Hypericin, hypericin] was tested, and the “Number of Plaques” value ([1]; 0.0032 μg/ml, Example 1, DMSO stock) was 72, the “Number of Plaques” value ([1]; 0.1 μg/ml, Example 1, DMSO stock) was 72 and the “Number of Plaques” value ([1]; 0.32 μg/ml, Example 1, DMSO stock) was 53. For the same compound, the “Number of Plaques” value ([1]; 1.0 μg/ml, Example 1, DMSO stock) was 53, the “Number of Plaques” value ([1]; 3.2 μg/ml, Example 1, DMSO stock) was 6 and the “Number of Plaques” value ([1]; 10 μg/ml, Example 1, DMSO stock) was 0. It also gave an inhibition at 0.0032 µg/mL ([1]; Human betaherpesvirus 5, AD169, MRC5, 0.0032 μg/ml, Example 1, DMSO stock) of 9%, an inhibition at 0.01 µg/mL ([1]; Human betaherpesvirus 5, AD169, MRC5, 0.01 μg/ml, Example 2, read-out: Percent Inhibition of Plaque Numbers (Compared to Virus Controls)) of 0% and an inhibition at 0.032 µg/mL ([1]; Human betaherpesvirus 5, AD169, MRC5, 0.032 μg/ml, Example 2, read-out: Percent Inhibition of Plaque Numbers (Compared to Virus Controls)) of 0%. For the same compound, the inhibition at 0.1 µg/mL [1, 4] was 9%, the inhibition at 0.1 µg/mL [1, 5] was 0% and the inhibition at 0.32 µg/mL [1, 4] was 33%. It also gave an inhibition at 0.32 µg/mL [1, 5] of 0%, an inhibition at 1 µg/mL [1, 4] of 33% and an inhibition at 1 µg/mL [1, 5] of 63%. The inhibition at 3.2 µg/mL ([1]; Human betaherpesvirus 5, AD169, MRC5, 3.2 μg/ml, Example 1, DMSO stock, read-out: % Inhibition) was 92%, the inhibition at 10 µg/mL ([1]; Human betaherpesvirus 5, AD169, MRC5, 10 μg/ml, Example 1, DMSO stock, read-out: % Inhibition) was 100% and the “Activity in initial screening against HCMV in vitro” value ([1]; initial screening, in words) was “active”. The inhibition at 10 µg/mL ([2]; Human betaherpesvirus 5, MRC5, 96 h, read-out: Percent Inhibition Compared to Controls) was 98%, the inhibition at 0.01 µg/mL [2, 6] was 0% and the inhibition at 0.032 µg/mL [2, 6] was 0%. The inhibition at 0.1 µg/mL [2, 6] was 0%, the inhibition at 0.32 µg/mL [2, 6] was 18% and the inhibition at 1 µg/mL [2, 6] was 52%. For the same compound, the inhibition at 3.2 µg/mL [2, 6] was 93%, the “% Reduction” value ([3]; 0.1 μg/ml) was 0% and the “Number of Plaques” value ([3]; 0.1 μg/ml) was 19. For the same compound, the “% Reduction” value ([3]; 0.32 μg/ml (row r14)) was 0%, the “Number of Plaques” value ([3]; 0.32 μg/ml (row r14)) was 22 and the “% Reduction” value [3, 7] was 0%. For the same compound, the “Number of Plaques” value [3, 7] was 25, the “% Reduction” value ([3]; 1.0 μg/ml) was 0% and the “Number of Plaques” value ([3]; 1.0 μg/ml) was 19. The “% Reduction” value ([3]; 3.2 μg/ml) was 0%, the “Number of Plaques” value ([3]; 3.2 μg/ml) was 15 and the “% Reduction” value ([3]; 10 μg/ml) was 100%. The “Number of Plaques” value ([3]; 10 μg/ml) was 0, the CD50 (MRC-5 cells; Example 1, DMSO stock) was “≈10 μg/ml” and the CD50 (MRC-5 cells; Example 3, cells exposed 4 days) was “˜10 μg/ml”. It also gave a CD50 (3T3 cells) of over 10 µg/mL.
